The values that follow come from PMC8209157, “Identification of a dual orange/far-red and blue light photoreceptor from an oceanic green picoplankton” (Nature Communications, 2021).

Each structure is given as a SMILES string.

Assay [1] addresses T1, PpPHY (PHY region of PpDUC1) (Pycnococcus provasolii, UniProt A0A830HT85).
T1 construct: gene PPROV_000692100; source genome assembly GCA_015473125.1
T1 sequence (A0A830HT85 1-662): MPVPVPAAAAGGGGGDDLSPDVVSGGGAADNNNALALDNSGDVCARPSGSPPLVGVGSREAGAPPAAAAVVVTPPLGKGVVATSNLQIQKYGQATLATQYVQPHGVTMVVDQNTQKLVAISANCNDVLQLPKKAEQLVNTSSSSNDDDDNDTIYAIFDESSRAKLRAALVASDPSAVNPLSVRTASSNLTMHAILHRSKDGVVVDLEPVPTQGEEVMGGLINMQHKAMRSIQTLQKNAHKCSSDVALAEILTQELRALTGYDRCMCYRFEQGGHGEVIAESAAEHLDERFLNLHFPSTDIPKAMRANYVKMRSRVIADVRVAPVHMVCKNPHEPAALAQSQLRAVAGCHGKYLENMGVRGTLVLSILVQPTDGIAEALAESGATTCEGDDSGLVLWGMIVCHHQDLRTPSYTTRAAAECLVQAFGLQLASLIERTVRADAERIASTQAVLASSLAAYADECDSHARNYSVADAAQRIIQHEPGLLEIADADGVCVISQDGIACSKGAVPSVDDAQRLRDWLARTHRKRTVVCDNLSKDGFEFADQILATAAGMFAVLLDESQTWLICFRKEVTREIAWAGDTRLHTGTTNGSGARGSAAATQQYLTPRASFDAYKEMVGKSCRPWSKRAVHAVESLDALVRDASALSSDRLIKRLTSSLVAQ
In words: UV-Vis photoconversion spectra, acid-urea denaturation and in-gel fluorescence of purified holoprotein. Format: binding. To be noted: covalent; GAF Cys; chromophore co-produced in E. coli (pKT271); HEPES pH 7.5, room temperature.

In assay [2] the target is T1, PpPHY (PHY region of PpDUC1). The assay is described as follows: UV-Vis photoconversion spectra of purified holoprotein. Format: binding. To be noted: chromophore co-produced in E. coli (pKT272); HEPES pH 7.5, room temperature.

Turning to `CC=C1C(=Cc2[nH]c(C=C3N=C(C=C4NC(=O)C(CC)=C4C)C(C)=C3CCC(=O)O)c(CCC(=O)O)c2C)NC(=O)C1C` (centres unmarked) [PCB, phycocyanobilin], the “UV-Vis photoconversion spectra, acid-urea denaturation and in-gel fluorescence o” value in assay [1] is given as “The purified PpPHY covalently bound PCB”.

Consider `C=CC1=C(C)C(=CC2=NC(=Cc3[nH]c(C=C4NC(=O)C(C)C4=CC)c(C)c3CCC(=O)O)C(CCC(=O)O)=C2C)NC1=O` (centres unmarked) [PΦB, phytochromobilin], for which, in assay [2], the “UV-Vis photoconversion spectra of purified holoprotein” value is given as “PΦB but not BV could be efficiently incorporated into the apo-PpPHY”.
